Data set [1] deals with T1, TOP I (Topoisomerase I) (Homo sapiens, UniProt P11387).
T1 construct: purchased TopoGEN TG2005H
T1 sequence (P11387 1-765): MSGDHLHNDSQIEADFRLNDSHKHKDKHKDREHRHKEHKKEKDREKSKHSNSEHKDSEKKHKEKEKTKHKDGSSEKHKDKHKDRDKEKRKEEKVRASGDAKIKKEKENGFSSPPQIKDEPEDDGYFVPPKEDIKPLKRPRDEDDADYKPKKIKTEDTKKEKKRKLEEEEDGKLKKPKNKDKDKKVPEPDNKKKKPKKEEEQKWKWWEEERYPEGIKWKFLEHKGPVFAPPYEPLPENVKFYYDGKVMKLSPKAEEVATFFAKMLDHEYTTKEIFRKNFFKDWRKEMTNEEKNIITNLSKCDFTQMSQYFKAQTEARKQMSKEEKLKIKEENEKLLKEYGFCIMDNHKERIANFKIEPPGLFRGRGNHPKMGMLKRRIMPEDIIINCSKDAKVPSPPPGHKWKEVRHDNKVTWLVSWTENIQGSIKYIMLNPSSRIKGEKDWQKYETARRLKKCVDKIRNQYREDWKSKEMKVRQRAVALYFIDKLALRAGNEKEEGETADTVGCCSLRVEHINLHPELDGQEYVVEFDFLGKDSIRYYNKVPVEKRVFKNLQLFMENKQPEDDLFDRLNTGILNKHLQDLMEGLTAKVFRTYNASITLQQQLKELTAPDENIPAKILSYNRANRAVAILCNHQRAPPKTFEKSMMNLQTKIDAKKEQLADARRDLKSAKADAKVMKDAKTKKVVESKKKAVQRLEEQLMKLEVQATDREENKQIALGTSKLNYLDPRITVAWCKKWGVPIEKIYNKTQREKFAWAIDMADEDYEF
Nature of the data set: TOP I mediated supercoiled DNA relaxation assay. As to conditions: five different concentrations; TopoGEN TG2005H, TG-2000H-1. Format: biochemical.

In data set [2] the target is T1, TOP I (Topoisomerase I). Put plainly: TOP I mediated supercoiled DNA relaxation assay. The data set is classed as biochemical. Particulars: primary assay at 25 and/or 50 μM. How it is done:
According to the cell cytotoxicity, compounds 5, 7, 8, 16, 19, N2, N7, N8, N9, N14-N19, and N25 were also selected for primary TOP I and II activities assays at 25 and/or 50 μM (FIG. 2-4).

Data set [3] addresses T2, TOP II (Topoisomerase II) (Homo sapiens, UniProt P11388).
T2 construct: purchased TopoGEN TG-2000H-1
Put plainly: TOP II-catalyzed relaxation of plasmid DNA assay. Format: biochemical. Particulars: for IC50: five different concentrations, TopoGEN TG2005H, TG-2000H-1, read-out: IC50 value, TOP II mediated supercoiled DNA relaxation; for inhibitory effect in TOP II relaxation assay compared with VP-16: primary assay at 25 and/or 50 μM. How it is done:
We also performed TOP II-catalyzed relaxation of plasmid DNA assays (FIG. 5-7) to evaluate if compounds could inhibit TOP II. […] The IC50 value of compounds 7, N7, N8, N14, N15, N18, and N19 were about 10, 10, 1, 10, 5, 1, and 1 μM, respectively (detect by TopoGEN TG2005H, TG-2000H-1).

The subject of the next data set is DU-145 cell line. Nature of the data set: MTT assay for cell cytotoxicity. Format: cell-based, human. As to conditions: DU-145 cells; 72 h; at least three independent experiments; read-out: MTT assay (IC50 ± SD) DU-145. How it is done:
(§1) All of synthesis compounds were evaluated cell cytotoxicity by using MTT colorimetric assay on PC-3 and DU-145 cell lines. DU-145 and PC-3 are human hormone-refractory (androgen-independent) prostatic cancer cell lines from American Type Culture Collection (HTB-81™, ATCC, Rockville, Md.)^125 and Bioresource Collection and Research Center (60122, BCRC, Taiwan)^126, respectively. Two of the “classical” cell lines were cultivated in RPMI-1640 medium supplemented with 5% fetal bovine serum (v/v), 100 U/mL penicillin, and […] streptomycin. Approximately 2×10^3 cells were seeded into each well of a 96-well plate and incubated in 5% CO2 at 37° C. for 24 h. To evaluate the in vitro cytotoxicity, all the synthetic compounds were dissolved in DMSO, prepared immediately before the experiments and diluted into the complete medium before being added to each well of a 96-well plate. Each compound was then added to the culture medium for designated various concentrations (0.15, 0.5, 1.5, 5, 15 μM). After 72 h, an amount of 100 μL of MTT (1 mg/mL) was added to each well, and the samples were incubated at 37° C. for 4 h. After removing the MTT solution, 100 μL of DMSO was added to each well and incubated at 37° C. for another 20 mins. The absorbency at 560 nm was measured by using an ELISA reader.
(§2) Results are expressed as mean values of at least three independent experiments. The IC50 values of testing compounds were described in Table 1.
(In general: Tetrazolium dyes change colour on reduction, which living cells bring about.)

The test system of the next data set is PC-3 cell line. Put plainly: MTT assay for cell cytotoxicity. Format: cell-based, human. Particulars: PC-3 cells, 72 h, at least three independent experiments, read-out: MTT assay (IC50 ± SD) PC-3. How it is done:
as §1, §2

Each structure is given as a SMILES string. Read-outs that look alike come from different tables or passages of the source.

We go through seven compounds from US8927717B1, “Thiochromeno[2,3-c]quinolin-12-one derivatives, preparation method and application thereof” (National Defense Medical Center, priority 2014, dated 2015).

T2 sequence (P11388 whole entry): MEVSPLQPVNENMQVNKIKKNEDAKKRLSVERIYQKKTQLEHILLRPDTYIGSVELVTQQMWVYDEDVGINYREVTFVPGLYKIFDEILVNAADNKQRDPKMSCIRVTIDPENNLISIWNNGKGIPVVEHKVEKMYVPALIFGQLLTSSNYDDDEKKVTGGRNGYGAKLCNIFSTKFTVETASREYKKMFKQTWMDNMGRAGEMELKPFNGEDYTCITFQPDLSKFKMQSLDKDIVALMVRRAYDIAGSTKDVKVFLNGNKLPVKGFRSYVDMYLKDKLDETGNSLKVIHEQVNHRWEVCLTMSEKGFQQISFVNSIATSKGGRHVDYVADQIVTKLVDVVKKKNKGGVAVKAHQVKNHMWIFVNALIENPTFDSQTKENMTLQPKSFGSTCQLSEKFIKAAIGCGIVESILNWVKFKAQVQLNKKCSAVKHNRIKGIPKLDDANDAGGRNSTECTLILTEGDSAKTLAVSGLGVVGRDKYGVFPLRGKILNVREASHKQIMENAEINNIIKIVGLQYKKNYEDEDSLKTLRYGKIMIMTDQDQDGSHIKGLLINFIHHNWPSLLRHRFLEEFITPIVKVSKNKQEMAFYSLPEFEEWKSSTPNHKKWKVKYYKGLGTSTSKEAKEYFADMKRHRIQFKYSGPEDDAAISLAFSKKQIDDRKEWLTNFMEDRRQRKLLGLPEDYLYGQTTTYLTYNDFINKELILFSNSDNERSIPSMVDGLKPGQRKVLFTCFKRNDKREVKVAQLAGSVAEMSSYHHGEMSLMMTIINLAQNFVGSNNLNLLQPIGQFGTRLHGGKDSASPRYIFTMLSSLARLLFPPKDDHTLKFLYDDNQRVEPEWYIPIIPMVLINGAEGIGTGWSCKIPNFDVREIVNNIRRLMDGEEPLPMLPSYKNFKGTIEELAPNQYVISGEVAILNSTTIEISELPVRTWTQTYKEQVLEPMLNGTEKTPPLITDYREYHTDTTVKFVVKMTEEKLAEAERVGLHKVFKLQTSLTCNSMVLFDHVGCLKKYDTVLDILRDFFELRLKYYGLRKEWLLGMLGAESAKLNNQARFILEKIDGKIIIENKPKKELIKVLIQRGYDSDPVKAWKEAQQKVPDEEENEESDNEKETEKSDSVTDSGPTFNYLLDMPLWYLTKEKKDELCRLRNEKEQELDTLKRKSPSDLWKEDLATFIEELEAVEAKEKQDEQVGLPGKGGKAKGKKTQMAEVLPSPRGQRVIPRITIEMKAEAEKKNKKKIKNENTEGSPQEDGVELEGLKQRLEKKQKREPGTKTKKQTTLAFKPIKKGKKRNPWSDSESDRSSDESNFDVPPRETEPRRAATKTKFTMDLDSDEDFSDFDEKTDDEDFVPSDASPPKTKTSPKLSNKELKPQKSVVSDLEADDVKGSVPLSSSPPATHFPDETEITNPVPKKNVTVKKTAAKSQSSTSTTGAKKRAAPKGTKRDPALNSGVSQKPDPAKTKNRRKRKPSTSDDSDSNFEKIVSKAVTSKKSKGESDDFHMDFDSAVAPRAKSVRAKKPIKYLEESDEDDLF

The IC50 is the concentration that inhibits the measured activity by half. By melting point is commonly meant the temperature, or range, at which the solid turns liquid. The compound `O=c1c2cc(Cl)ccc2sc2c(N3CCNCC3)nc3ccccc3c12` [Compound 7, 10-Chloro-6-(piperazin-1-yl)-12H-thiochromeno[2,3-c]quinolin-12-one] registered a melting point of 211 to 213 °C. For the same compound, the IC50 against TOP I (Topoisomerase I) [1] was ~10 µM. The “inhibitory effect in TOP I activity assay compared with CPT” value (shortened to “inhibitory effect … compared with CPT”) against TOP I (Topoisomerase I) [2] is on record as “more potent inhibitory effects than CPT”. For the same compound, in data set [3], the IC50 was ~10 µM and the “inhibitory effect in TOP II relaxation assay compared with VP-16” value (shortened to “inhibitory effect … compared with VP-16”) is “more potent inhibitory effects than the positive agent VP-16”.

Turning to `O=c1c2cc(Cl)ccc2sc2c(NCCCO)nc3ccccc3c12` [Compound N10, 10-Chloro-6-(3-propanolamino)-12H-thiochromeno[2,3-c]quinolin-12-one], the IC50 was 5.94 ± 2.03 µM with DU-145 cell line and 6.31 ± 4.11 µM in the data set on PC-3 cell line.

In the case of `O=c1c2cc(Cl)ccc2sc2c(NCCCCCO)nc3ccccc3c12` [Compound N11, 10-Chloro-6-(5-pentanolamino)-12H-thiochromeno[2,3-c]quinolin-12-one], the figures for the IC50 in the data set on DU-145 cell line and with PC-3 cell line were 4.95 ± 0.58 µM and 8.38 ± 3.39 µM, respectively.

In turn, `O=c1c2cc(Cl)ccc2sc2c(NCCNCCO)nc3ccccc3c12` [Compound N15, 10-Chloro-6-((2-((2-hydroxyethyl)amino)ethyl)amino)-12H-thiochromeno[2,3-c]quinolin-12-one] displayed a melting point of 141 to 143 °C. The concentration for half-maximal inhibition (IC50) on TOP I (Topoisomerase I) [1] was ~5 µM. In addition, the “inhibitory effect … compared with CPT” value against TOP I (Topoisomerase I) [2] was “more potent inhibitory effects than CPT”. In data set [3], the IC50 was ~5 µM and the “inhibitory effect … compared with VP-16” value was “more potent inhibitory effects than the positive agent VP-16”.

The compound `CCN(CC)CCCNc1nc2ccccc2c2c(=O)c3cc(Cl)ccc3sc12` [Compound N18, 10-Chloro-6-((3-(diethylamino)propyl)amino)-12H-thiochromeno[2,3-c]quinolin-12-one] yielded a melting point of 142 to 143 °C. Moreover, at TOP I (Topoisomerase I) [1], the IC50 is ~25 µM. Besides, the “inhibitory effect … compared with CPT” value at TOP I (Topoisomerase I) [2] is reported as “more potent inhibitory effects than CPT”. Also, in data set [3], the IC50 was ~1 µM and the “inhibitory effect … compared with VP-16” value is recorded as “more potent inhibitory effects than the positive agent VP-16”.

As to `Nc1ccc(CCNc2nc3ccccc3c3c(=O)c4cc(Cl)ccc4sc23)cc1` [Compound N32, 6-((4-Aminophenethyl)amino)-10-chloro-12H-thiochromeno[2,3c]quinolin-12-one], the values for the IC50 with DU-145 cell line and with PC-3 cell line were 13.6 ± 1.39 µM and 10.1 ± 0.94 µM, respectively.

For the compound `COc1cc([C@@H]2c3cc4c(cc3[C@@H](O[C@@H]3O[C@@H]5CO[C@@H](C)O[C@H]5[C@H](O)[C@H]3O)[C@H]3COC(=O)[C@H]23)OCO4)cc(OC)c1O` [Etoposide (VP-16), Etoposide, reference compound], the IC50 in the data set with PC-3 cell line (Homo sapiens) came out at 4.33 ± 0.86 µM.
